# Data published in patent US20090298938A1, “USE OF SEMI SYNTHETIC ANALOGUES OF BOSWELLIC ACIDS FOR ANTICANCER ACTIVITY” (COUNCIL OF SCIENTIFIC & INDUSTRIAL RESEARCH, priority 2008, published 2009).
# What was measured:
# [1] = tested on: HT-29 colon cancer cells; assay: In vitro cytotoxicity, SRB assay, HT-29; type: cell-based, human; details: Table 2
# Procedure: (§1) The semi-synthetic analogues of formula 1 have been subjected to in vitro cytotoxicity screening in a panel of human cancer cell lines using following methodology. The human cancer cell lines were obtained either from National Center for Cell Science, Pune or National Cancer Institute, Fredrick, Md., USA. Cells were grown in tissue culture flasks in complete growth medium (RPMI-1640 medium with 2 mM glutamine, 100 µg/ml streptomycin, pH 7.4, sterilized by filtration and supplemented with 10% sterilized fetal calf serum and 100 units/ml penicillin before use) at 37° C. in an atmosphere of 5% CO2 and 90% relative humidity in a carbon dioxide incubator. The cells at sub-confluent stage were harvested from flask by treatment with trypsin (0.05% trypsin in PBS containing 0.02% EDTA) and suspended in complete growth medium. Cells with cell viability of more than 97% by trypan blue exclusion technique were used for determination of cytotoxicity.
# (§2) Test material were dissolved in DMSO (dimethyl sulphoxide) to obtain a stock solution of 2×10^−2M. The stock solution was serially diluted with complete growth medium containing 50 μg/ml of gentamycin to obtain working test solutions of required concentrations.
# (§3) The suspension of human cancer cell lines of required cell density in complete growth medium was prepared and cell suspension (100 μl/well) of each cell line was added to wells of 96-well tissue culture plate. Suitable blanks and controls were also included. The plates were incubated for 24 hrs in a carbon dioxide incubator.
# (§4) The working test solutions of different concentrations (100 μl/well) were added after 24 hr incubation. The plates were further incubated for 48-hrs after addition of the test materials. After incubation, the cell growth was stopped by gently layering of 50 μl of TCA (50% trichloroacetic acid) on top of the medium in all the wells. The plates were incubated at 4° C. for one hour to fix the cells attached to bottom of the wells. Liquids of all the wells were gently pipetted out and discarded. The plates were washed five times with distilled water to remove TCA, growth medium, low molecular weight metabolites, serum proteins etc. The plates were air dried.
# (§5) Cell growth was measured by staining with sulforhodamine B dye (SRB). The SRB solution (100 μl, 0.4% in 1% acetic acid) was added to each well and the plates were incubated at room temperature for 30 minutes. The unbound SRB was quickly removed by washing the wells five times with 1% acetic acid solution and plates were air dried. Tris buffer (100 μl, 0.01 M, pH 10.4) was added to all the wells and plates were gently stirred for 5 minutes on a mechanical stirrer. The optical density was recorded on ELISA reader at 540 nm.
# (§6) Cell growth in the presence of test material was calculated in terms of the percentage of growth inhibition. The in vitro cytotoxicity of four natural boswellic acid i.e. boswellic acid, acetyl boswellic acid, 11-keto-boswellic acids, acetyl-11-ketio-boswellic acid on various cancer cell lines has been examined and typical results are given in the succeeding table. Based on their cytotoxicity profile the analogues of formula 1 were studied for inhibition of cell proliferation by using MTT assay method. […] The induction of apoptosis in HL-60 cells was also validated by generation of DNA fragmentation.
# (§7) Assay of cytotoxicity potential of test materials is a primary standard procedure for seeking lead molecules for development of anti-cancer leads. Human cancer cells after trypsinization into single cell suspension were grown in 96-well culture plate for 24 hr. Cells were treated with indicated doses of test analogues and incubated in CO2 incubator for 48 hr. Thereafter, cells were stained with sulforhodamine B dye, and the bound dye was eluted to measure the optical density indicating cell growth in Elisa Reader at 540 nm [Monks et al., 1991]. […]
# [2] = tested on: Hep-2 cells; assay: In vitro cytotoxicity, SRB assay, Hep-2; type: cell-based, human; details: Table 2
# Procedure: as §1, §2, §3, §4, §5, §6, §7
# [3] = tested on: SW-620 colon cancer cells; assay: In vitro cytotoxicity, SRB assay, SW-620; type: cell-based, human; details: Table 2
# Procedure: as §1, §2, §3, §4, §5, §6, §7
# [4] = tested on: Colo-205 colon cancer cells; assay: In vitro cytotoxicity, SRB assay, Colo-205; type: cell-based, human; details: Table 2
# Procedure: as §1, §2, §3, §4, §5, §6, §7
# [5] = tested on: Ehrlich Ascitic Carcinoma solid tumor; assay: Ehrlich ascitic tumor (solid) growth inhibition in mice; type: in vivo, Swiss albino mice; details: 22 mg/kg intraperitoneally, 9 days, evaluated day 13, positive control
# Procedure: FIG. 9. Tumor growth inhibition by boswellic acid analogs. Mice treated intraperitoneally with a compound (designated “c”) of formula 1, wherein R3=COCH2CH2CH3, R1=H, R4+R5=O, have shown 22% tumor growth inhibition at a dose of about 50 mg/kg of body weight, and 41% tumor growth inhibition at a dose of 100 mg/kg of body weight.
# Swiss albino mice of 6-8 weeks, weighing 18-23 g of single sex were used. For the initiation of experiment, 1×10^7 cells of EAC (Ehrlich Ascitic Carcinoma) cells were transplanted intramuscularly (i.m.) in 32 mice for the development of solid tumors. The day of tumor transplantation was assigned as day 0. Next day (day-1) animals were randomly selected and divided into four groups having equal number of mice in each group of similar body wt. Groups I and II were treated with compound of formula 1 where R3=COCH2CH2CH3, R1=H, R4+R5=O at the dose of 50 mg/kg b, wt and 100 mg/kg b. wt. intraperitoneally, respectively. Group III received 0.2 ml of 0.85% normal saline and served as normal control while group IV serving as positive control was treated with 5-FU (22 mg/kg b. wt.) intraperitoneally. The total duration of treatment was of 9 days. The evaluation of effect of treatment on tumor was done on 13th day. Ehrlich ascites cells (1×10^7) were injected intramuscularly in the right thigh muscles and on the following day animals started receiving treatment intraperitoneally in 0.5% Tween-20 daily at the indicated doses for 9 days. The growth of tumor and the efficacy of compound of formula 1, where R3=COCH2CH2CH3, R1=H, R4+R5=O in inhibiting tumor growth were evaluated on day 13 in terms of the weight of the tumor in treated and control groups count. The determination of solid tumor growth inhibition against EAT was calculated as percent tumor growth regression according to the following: […]
# [6] = tested on: PC-3 cells; assay: In vitro cytotoxicity, SRB assay, PC-3; type: cell-based, human; details: Table 2
# Procedure: as §1, §2, §3, §4, §5, §6, §7
# [7] = tested on: HL-60 cells; assay: Apoptosis induction, annexin V-FITC/PI flow cytometry; type: cell-based, human; details: HL-60, 15 μM, 6 hr
# Procedure: FIG. 2. Comparative efficacy of apoptosis induction: Measurement by flow cytometry. The effects of boswellic acid on the relative efficiency of induction of apoptosis and necrosis in HL-60 cells were analyzed by flow cytometry. Cells were incubated with each analog for 6 hrs and stained with annexin V-FITC labeled. The dot plots are representative of one of the two separate experiments. Values in the lower right quadrant represent the apoptotic population in the UR as post-apoptotic and in the UL as necrotic. Where a=compound of formula 1, R3=COCH2CH2CH3, […], R4=[…], b=compound of formula 1, R3=COCH2CH3R1=H, R4=[…], c=compound of formula 1, R3=COCH2CH2CH3, […], R4+R5=O, d=compound of formula 1, […], R3=COCH2CH3, R4=[…], e=compound of formula 1, R3=COCH2CH2CH3, […], R4=[…], f=β-boswellic acid. Compounds of formula 1 where […], R3=COCH2CH3R3=[…]; R3=COCH2CH2CH3, […], R4=[…] and natural β-boswellic acid produced low level of apoptotic cell population (approx. 10%) compared to compound of formula 1 where R3=COCH2CH2CH3, […], R4=[…] (17%), […], R3=COCH2CH3, R4=[…] (30%) and where R3=COCH2CH2CH3, […], R4+R5=O (23%), although the combined apoptotic and post-apoptotic population was about 32% with the last three analogs. Confirmation that boswellic acid analogs are potent inducers of apoptosis may also be obtained from DNA fragmentation assay. During the early events of apoptosis, phospholipid phosphatidyl serine of plasma membrane is externalized, which has very high affinity for annexinV antibody. Effect of a single concentration (15 μM) of each boswellic acid analogs on the relative efficiency of induction of apoptosis and necrosis in HL-60 cells was analyzed by flow cytometry. Cells were incubated with each analog for 6 hr and stained with Annexin V-FITC/PI. Camptothecin at 4 μM was used as positive control. There after, cells were washed and stained with FITC conjugated annexinV antibody and propidium iodide. The cells (10,000) were analysed by flow cytometery (BD, LSR) using ProQuest software.
smiles,measurement,setting,value
"O=c1[nH]cc(F)c(=O)[nH]1 [Compound 5-FU, 5-FU, reference compound]",Growth inhibition % HT-29 Colon,[1]; Conc. 1 × 10^4,21%
same,Growth inhibition % HT-29 Colon,[1]; Conc. 1 × 10^5,40%
same,Growth inhibition % Hep-2,[2]; Conc. 1 × 10^4,5%
same,Growth inhibition % Hep-2,[2]; Conc. 1 × 10^5,14%
same,Growth inhibition % SW-620 Colon,[3]; Conc. 1 × 10^4,7%
same,Growth inhibition % SW-620 Colon,[3]; Conc. 1 × 10^5,0%
same,Growth inhibition % Colo-205 Colon,[4]; Conc. 1 × 10^4,39%
same,Growth inhibition % Colo-205 Colon,[4]; Conc. 1 × 10^5,43%
same,tumor growth inhibition,[5],56%
same,Growth inhibition % PC-3,[6]; Conc. 1 × 10^4,52%
same,Growth inhibition % PC-3,[6]; Conc. 1 × 10^5,37%
CCC(=O)OC1CCC2(C)C(CCC3(C)C2CC=C2C4C(C)C(C)CCC4(C)CCC23C)C1(C)C(=O)O (stereo not drawn) [b],apoptotic cell population,"[7]; listed as R1=H, R3=COCH2CH3R3=R4=H",approx. 10%
CCC(=O)OC1CCC2(C)C(CCC3(C)C2CC=C2C4C(C)C(C)CCC4(C)CCC23C)C1(C)C(=O)O (stereo not drawn) [d],combined apoptotic and post-apoptotic population,[7],about 32%
same,apoptotic cell population,"[7]; listed as R1=H, R3=COCH2CH3, R4=R5=H",30%
"C[C@H]1[C@H](C)CC[C@]2(C)CC[C@]3(C)C(=CC[C@@H]4[C@@]5(C)CC[C@@H](O)[C@](C)(C(=O)O)[C@@H]5CC[C@]43C)[C@H]12 [β-boswellic acid, reference compound]",apoptotic cell population,[7],approx. 10%
